Measurements from ChEMBL document CHEMBL1201862, “PubChem BioAssay data set” (2004).
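Assay format: 96-well plates, 48-hour exposure. At the GI50, growth is halved.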 The source made the active and inactive calls. Cut-off read from the data, not from the text of the source: active = GI50 up to about 1.1 µM and inactive = higher.

How the values were obtained:
Experiment in all cases: NCI-60 cell line screen, 48 h
A549 = test system: A549
BT-549 = test system: BT-549
COLO 205 = test system: COLO 205
HCT-15 = test system: HCT-15
HOP-92 = test system: HOP-92
Hs-578T = test system: Hs-578T
MDA-N = test system: MDA-N
Malme-3M = test system: Malme-3M
NCI-H23 = test system: NCI-H23
NCI-H460 = test system: NCI-H460
NCI-H522 = test system: NCI-H522
OVCAR-3 = test system: OVCAR-3
OVCAR-8 = test system: OVCAR-8
SK-MEL-5 = test system: SK-MEL-5
SNB-75 = test system: SNB-75
U-251 = test system: U-251
UACC-257 = test system: UACC-257
UACC-62 = test system: UACC-62
UO-31 = test system: UO-31
MOLT-4 = test system: MOLT-4

Row | Compound | GI50 (A549) | GI50 (BT-549) | GI50 (COLO 205) | GI50 (HCT-15) [µM] | GI50 (HOP-92) | GI50 (Hs-578T) | GI50 (MDA-N) | GI50 (Malme-3M) | GI50 (NCI-H23) | GI50 (NCI-H460) | GI50 (NCI-H522) | GI50 (OVCAR-3) | GI50 (OVCAR-8) | GI50 (SK-MEL-5) | GI50 (SNB-75) | GI50 (U-251) | GI50 (UACC-257) | GI50 (UACC-62) | GI50 (UO-31) | GI50 (MOLT-4)
1 | CN(C)S(=O)(=O)Nc1ccccn1 | > 100 µM (inactive) | > 100 µM (inactive) | > 100 µM (inactive) | > 100 | > 100 µM (inactive) | > 100 µM (inactive) | > 100 µM (inactive) | > 100 µM (inactive) | > 100 µM (inactive) | > 100 µM (inactive) | > 100 µM (inactive) | > 100 µM (inactive) | > 100 µM (inactive) | > 100 µM (inactive) | > 100 µM (inactive) | > 100 µM (inactive) | > 100 µM (inactive) | > 100 µM (inactive) | > 100 µM (inactive) | 
2 | Cc1ncc([N+](=O)[O-])n1CCN=[N+]=[N-] | > 100 µM (inactive) | > 100 µM (inactive) | > 100 µM (inactive) | > 100 | > 100 µM (inactive) | > 100 µM (inactive) | > 100 µM (inactive) | > 100 µM (inactive) | > 100 µM (inactive) | > 100 µM (inactive) | > 100 µM (inactive) | > 100 µM (inactive) | > 100 µM (inactive) | > 100 µM (inactive) | > 100 µM (inactive) | > 100 µM (inactive) | > 100 µM (inactive) | > 100 µM (inactive) | > 100 µM (inactive) | 
3 | N#C/C(=C\c1ccc(F)cc1)c1nc2ccccc2c(=O)[nH]1 | > 100 µM (inactive) | 36.8 µM (inactive) | > 100 µM (inactive) | > 100 | 82.2 µM (inactive) | 79.6 µM (inactive) | > 100 µM (inactive) | > 100 µM (inactive) |  | > 100 µM (inactive) | > 100 µM (inactive) |  | > 100 µM (inactive) |  | 25.9 µM (inactive) | 70.6 µM (inactive) | > 100 µM (inactive) | > 100 µM (inactive) | > 100 µM (inactive) | 26.1 µM (inactive)
4 | NC(=O)c1nnc2cc(F)c(F)cc2c1N | 90.2 µM (inactive) | 15.7 µM (inactive) | > 100 µM (inactive) | > 100 |  | 26.7 µM (inactive) | > 100 µM (inactive) | 29.7 µM (inactive) | 23.3 µM (inactive) | 58.3 µM (inactive) | 18.8 µM (inactive) | > 100 µM (inactive) | 37.3 µM (inactive) | 87.1 µM (inactive) | 16.7 µM (inactive) | 22.3 µM (inactive) | > 100 µM (inactive) | 31.3 µM (inactive) | 22.1 µM (inactive) | > 100 µM (inactive)
5 | Cn1c(-c2cccs2)cc(-c2cccs2)c1-c1ccsc1 | 70.5 µM (inactive) | > 100 µM (inactive) | > 100 µM (inactive) | 32.9 | > 100 µM (inactive) | > 100 µM (inactive) | > 100 µM (inactive) |  | > 100 µM (inactive) | > 100 µM (inactive) |  | 12.4 µM (inactive) | > 100 µM (inactive) | 27.2 µM (inactive) | > 100 µM (inactive) | > 100 µM (inactive) | 66.8 µM (inactive) | > 100 µM (inactive) | > 100 µM (inactive) | > 100 µM (inactive)
6 | C/C=C1\CN2CCC34c5ccccc5N(C)C35OCC4(C(=O)OC)C1CC25 (stereo unspecified) | 61.4 µM (inactive) | 34.3 µM (inactive) | 16 µM (inactive) | 23.1 | 28.6 µM (inactive) | 54.8 µM (inactive) | 46.5 µM (inactive) |  | 56.9 µM (inactive) | 25.5 µM (inactive) | 47.8 µM (inactive) | 76.2 µM (inactive) |  | 18.4 µM (inactive) | 99.5 µM (inactive) | 93.3 µM (inactive) | 32.4 µM (inactive) | 61 µM (inactive) | 70.6 µM (inactive) | 45.7 µM (inactive)
7 | Cc1ccc(/C=C2\N=C(N3CCCCC3)NC2=O)cc1 | > 100 µM (inactive) | > 100 µM (inactive) | > 100 µM (inactive) | > 100 | > 100 µM (inactive) | 70.8 µM (inactive) | > 100 µM (inactive) | > 100 µM (inactive) | > 100 µM (inactive) |  | 74.5 µM (inactive) | > 100 µM (inactive) | 64.1 µM (inactive) |  |  | > 100 µM (inactive) | > 100 µM (inactive) | > 100 µM (inactive) | > 100 µM (inactive) | > 100 µM (inactive)
8 | N#Cc1sc2nc3ccccc3n2c1N | 47.4 µM (inactive) | 49.2 µM (inactive) | 78.7 µM (inactive) | 65.5 | > 100 µM (inactive) | 36.2 µM (inactive) | > 100 µM (inactive) | > 100 µM (inactive) | 52.5 µM (inactive) |  | > 100 µM (inactive) | 68.7 µM (inactive) | 78.2 µM (inactive) | 95.7 µM (inactive) | 29.7 µM (inactive) | 83.9 µM (inactive) | > 100 µM (inactive) | 62.4 µM (inactive) | 36.6 µM (inactive) | 31.4 µM (inactive)
9 | O=C(O)Cc1cccc2c(=O)c3cccc([N+](=O)[O-])c3oc12 | > 100 µM (inactive) | > 100 µM (inactive) | > 100 µM (inactive) | > 100 |  | > 100 µM (inactive) | > 100 µM (inactive) | > 100 µM (inactive) | > 100 µM (inactive) | > 100 µM (inactive) | > 100 µM (inactive) | > 100 µM (inactive) | > 100 µM (inactive) | > 100 µM (inactive) | > 100 µM (inactive) | > 100 µM (inactive) | > 100 µM (inactive) | > 100 µM (inactive) | > 100 µM (inactive) | > 100 µM (inactive)
10 | CC(=O)C(CN1C(=O)c2ccccc2C1=O)C(C)=O | > 100 µM (inactive) | > 100 µM (inactive) | > 100 µM (inactive) | > 100 | > 100 µM (inactive) | > 100 µM (inactive) | > 100 µM (inactive) |  | > 100 µM (inactive) | > 100 µM (inactive) | > 100 µM (inactive) | > 100 µM (inactive) | > 100 µM (inactive) | > 100 µM (inactive) | > 100 µM (inactive) | > 100 µM (inactive) | > 100 µM (inactive) | > 100 µM (inactive) | > 100 µM (inactive) | 
11 | COc1ccc(-c2nnc3nc4ccccc4n3c2O)cc1 | > 100 µM (inactive) | > 100 µM (inactive) | > 100 µM (inactive) | > 100 | 54 µM (inactive) | > 100 µM (inactive) | > 100 µM (inactive) | > 100 µM (inactive) | > 100 µM (inactive) | > 100 µM (inactive) | > 100 µM (inactive) |  | > 100 µM (inactive) | > 100 µM (inactive) | 41.9 µM (inactive) | 90.2 µM (inactive) | > 100 µM (inactive) |  | > 100 µM (inactive) | > 100 µM (inactive)
